Data as given in the NIST ThermoML archive (doi:10.1016/j.jct.2015.05.011).
Numbers after ± are expanded uncertainties.

What was measured:
[1] = xn = mol fraction of the nth substance listed; details: 100 kPa, Liquid; for mass density: Vibrating tube method; for viscosity: Falling or rolling sphere viscometry
[2] = refractive index (Na D-line) (dimensionless); xn = mol fraction of the nth substance listed; details: 298.15 K, 100 kPa, Liquid, Standard Abbe refractometry
[3] = excess molar enthalpy (molar enthalpy of mixing); xn = mol fraction of the nth substance listed; details: 100 kPa, Liquid, Flow calorimetry

CCn1cc[n+](C)c1.N#C[C-](C#N)C#N [1-ethyl-3-methyl-1H-imidazolium tricyanomethanide] + O
Details | excess molar enthalpy, [3] [kcal/mol] | mass density, [1] [kg/m3] | viscosity, [1] [mPa·s]
288.15 K, x1 = 0.000486 | 0.00123 ± 0.000196 | 999.748 ± 0.11 | –
288.15 K, x1 = 0.000971 | 0.00258 ± 0.000215 | 1000.38 ± 0.11 | –
288.15 K, x1 = 0.001456 | 0.00395 ± 0.000263 | 1000.99 ± 0.11 | –
288.15 K, x1 = 0.001941 | 0.0053 ± 0.000311 | 1001.57 ± 0.11 | –
288.15 K, x1 = 0.002425 | 0.00668 ± 0.000359 | 1002.13 ± 0.11 | –
288.15 K, x1 = 0.002908 | 0.00806 ± 0.000406 | 1002.68 ± 0.11 | –
298.15 K, x1 = 0.000486 | 0.00143 ± 0.000196 | 997.586 ± 0.11 | –
298.15 K, x1 = 0.000971 | 0.00297 ± 0.000227 | 998.133 ± 0.11 | –
298.15 K, x1 = 0.001455 | 0.0045 ± 0.000263 | 998.652 ± 0.11 | –
298.15 K, x1 = 0.00194 | 0.00603 ± 0.000335 | 999.158 ± 0.11 | –
298.15 K, x1 = 0.002423 | 0.00756 ± 0.000382 | 999.648 ± 0.11 | –
298.15 K, x1 = 0.002907 | 0.00907 ± 0.000454 | 1000.12 ± 0.11 | –
298.15 K, x2 = 0 | – | 1081.38 ± 0.15 | 14 ± 0.3
298.15 K, x2 = 0.1084 | – | 1079.85 ± 0.15 | 11.85 ± 0.25
298.15 K, x2 = 0.2059 | – | 1078.28 ± 0.14 | 10.11 ± 0.22
298.15 K, x2 = 0.3058 | – | 1076.34 ± 0.14 | 8.35 ± 0.18
298.15 K, x2 = 0.4145 | – | 1073.8 ± 0.13 | 7.05 ± 0.15
298.15 K, x2 = 0.5128 | – | 1070.97 ± 0.13 | 5.88 ± 0.13
298.15 K, x2 = 0.6095 | – | 1067.4 ± 0.13 | 4.89 ± 0.1
298.15 K, x2 = 0.7065 | – | 1062.54 ± 0.12 | 3.98 ± 0.08
298.15 K, x2 = 0.789 | – | 1056.44 ± 0.12 | 3.24 ± 0.07
298.15 K, x2 = 0.9015 | – | 1040.72 ± 0.12 | 2.16 ± 0.05
298.15 K, x2 = 0.9513 | – | 1026.4 ± 0.12 | 1.58 ± 0.03
298.15 K, x2 = 0.9869 | – | 1008.32 ± 0.12 | 1.07 ± 0.02
308.15 K, x1 = 0.000485 | 0.00166 ± 0.000198 | 994.509 ± 0.11 | –
308.15 K, x1 = 0.00097 | 0.00339 ± 0.000239 | 994.981 ± 0.11 | –
308.15 K, x1 = 0.001455 | 0.00511 ± 0.000287 | 995.435 ± 0.11 | –
308.15 K, x1 = 0.001939 | 0.00682 ± 0.000359 | 995.873 ± 0.11 | –
308.15 K, x1 = 0.002423 | 0.00851 ± 0.00043 | 996.296 ± 0.11 | –
308.15 K, x1 = 0.002906 | 0.0102 ± 0.000478 | 996.708 ± 0.11 | –
318.15 K, x1 = 0.000485 | 0.00184 ± 0.000201 | 990.626 ± 0.11 | –
318.15 K, x1 = 0.00097 | 0.00377 ± 0.000239 | 991.036 ± 0.11 | –
318.15 K, x1 = 0.001455 | 0.00569 ± 0.000311 | 991.43 ± 0.11 | –
318.15 K, x1 = 0.001939 | 0.00759 ± 0.000382 | 991.809 ± 0.11 | –
318.15 K, x1 = 0.002422 | 0.00945 ± 0.000454 | 992.176 ± 0.11 | –
318.15 K, x1 = 0.002905 | 0.0113 ± 0.000526 | 992.534 ± 0.11 | –

[2]
Details | refractive index
x2 = 0 | 1.51227 ± 0.00036
x2 = 0.1084 | 1.50965 ± 0.00036
x2 = 0.2059 | 1.50681 ± 0.00036
x2 = 0.3058 | 1.50438 ± 0.00036
x2 = 0.4145 | 1.49961 ± 0.00035
x2 = 0.5128 | 1.49477 ± 0.00035
x2 = 0.6095 | 1.487 ± 0.00035
x2 = 0.7065 | 1.4765 ± 0.00035
x2 = 0.789 | 1.46324 ± 0.00035
x2 = 0.9015 | 1.42697 ± 0.00035
x2 = 0.9513 | 1.39433 ± 0.00036
x2 = 0.9869 | 1.35455 ± 0.00037
